For data set [1], the system named is Human immunodeficiency virus 1. The data set can be described thus: Antiviral activity against HIV1 RES056 expressing reverse transcriptase K103N/Y181C double mutant infected in human MT4 cells assessed as protection against virus-induced cytopathic effect after 5 days by MTT assay. The data set is classed as functional, cell-based. Conditions: Human immunodeficiency virus 1, RES056, MT4, 120 h.

Data set [2] is described as follows: Selectivity index, ratio of CC50 for mock-infected human MT4 cells to EC50 for HIV1 3B expressing wild type reverse transcriptase. It is filed as toxicity, cell-based. Conditions: read-out: Ratio CC50/EC50.
Data set [3] in a line: Solubility of the compound. It is filed as physicochemical.
The target in data set [4] is Human immunodeficiency virus type 1 reverse transcriptase (Human immunodeficiency virus 1, UniProt Q72547). The data set can be described thus: Inhibition of recombinant wild type HIV1 p66/p51 using poly(rA) template/oligo(dT)16 primer after 40 mins by PicoGreen-based spectrofluorometric method.
Data set [5] can be described thus: Cytotoxicity against mock-infected human MT4 cells assessed as reduction in cell viability after 5 days by MTT assay. The data set is classed as toxicity, cell-based. (In general: Tetrazolium assays rely on reduction of a dye to a coloured formazan, in cell work by metabolically active cells.)
For data set [6], the system named is Human immunodeficiency virus 1. The data set can be described thus: Antiviral activity against HIV1 3B expressing wild type reverse transcriptase infected in human MT4 cells assessed as protection against virus-induced cytopathic effect after 5 days by MTT assay. As to conditions: Human immunodeficiency virus 1, 3B, MT4, 120 h. It is filed as functional, cell-based. For orientation: Damage to the host cells serves as the signal in cytopathic effect assays.

Data set [7] can be described thus: Selectivity index, ratio of CC50 for mock-infected human MT4 cells to EC50 for HIV1 RES056 expressing reverse transcriptase K103N/Y181C double mutant. The data set is classed as toxicity, cell-based. Conditions: read-out: Ratio CC50/EC50.

Broadly, the EC50 is the midpoint of the concentration-response curve. Broadly, the solubility is the dissolved amount per volume that the medium holds. Read a high solubility as a readily soluble substance. By IC50 is commonly meant the concentration that gives 50% inhibition. In general, CC50 refers to the concentration at which the toxic effect on the cells reaches its halfway point. For the compound `COc1cc(Oc2c(C)cc(C#N)cc2C)cc(NC2CCN(Cc3ccc(S(C)(=O)=O)cc3)CC2)n1`, the concentration for a half-maximal effect (EC50) in data set [1] was above 1700 nM; in data set [6] it was 12 nM. The selectivity ratio in data set [2] was 133; in data set [7], below 1. This compound also yielded a solubility in data set [3] above 48 µM. The IC50 in data set [4] is 175 nM. Also, the CC50 at 120 h in data set [5] came out at 1700 nM.

Consider `COc1cc(Oc2c(C)cc(C#N)cc2C)cc(NC2CCN(Cc3ccncc3)CC2)n1`, for which the EC50 in data set [1] was determined as 6200 nM; in data set [6] it was 13 nM. In addition, the selectivity ratio in data set [2] was determined as 1570; in data set [7], 3. The compound also came in with a solubility in data set [3] above 11 µM. Besides, the IC50 in data set [4] amounted to 81 nM. Also, the half-maximal cytotoxic concentration (CC50) at 120 h in data set [5] was determined as 20800 nM.

`Cc1cc(C)c(Oc2cc(Cl)nc(NC3CCN(Cc4ccccc4)CC3)c2)c(C)c1`: the EC50 in data set [1] is above 9700 nM; in data set [6], 150 nM. For the same compound, the selectivity ratio in data set [2] is 63; in data set [7], below 1. Besides, in data set [3], the solubility was above 287 µM. The IC50 in data set [4] turned out to be 287 nM. For the same compound, in data set [5], the CC50 at 120 h turned out to be 9700 nM.

`Cc1cc(C#N)cc(C)c1Oc1cc(Cl)nc(NC2CCN(Cc3ccccc3)CC2)c1`: the EC50 in data set [1] is above 4300 nM; in data set [6], 49 nM. The selectivity ratio in data set [2] is 88; in data set [7] it was below 1. This compound gave a solubility in data set [3] above 56 µM. Also, the IC50 in data set [4] came to 168 nM. In addition, the CC50 at 120 h in data set [5] stood at 4300 nM.

`Cc1cc(C)c(Oc2cc(Nc3ccc(C#N)cc3)nc(OCCCN3CCOCC3)c2)c(C)c1`: the EC50 is above 18800 nM in data set [1] and 1100 nM in data set [6]. The selectivity ratio was 18 in data set [2] and below 1 in data set [7]. Further, the solubility in data set [3] was above 11 µM. The IC50 in data set [4] is 4060 nM. Besides, the CC50 at 120 h in data set [5] amounted to 18800 nM.

As to `COc1cc(Oc2c(C)cc(C#N)cc2C)cc(NC2CCN(Cc3ccc(S(N)(=O)=O)cc3)CC2)n1`, the EC50 in data set [1] turned out to be 6800 nM; in data set [6], 7.8 nM. Besides, the selectivity ratio came out at 1280 in data set [2] and 1 in data set [7]. The same compound registered a solubility in data set [3] above 48 µM. The IC50 in data set [4] was determined as 132 nM. For the same compound, the CC50 at 120 h in data set [5] is 10000 nM.

With `Cc1cc(C#N)cc(C)c1Oc1cc(Cl)nc(NC2CCN(Cc3ccncc3)CC2)c1`, the EC50 in data set [1] was at least 6500 nM; in data set [6], 9.1 nM. In addition, the figures for the selectivity ratio in data set [2] and in data set [7] were 1070 and at most 1, respectively. The solubility in data set [3] is above 56 µM. For the same compound, the IC50 in data set [4] stood at 40 nM. Moreover, the CC50 at 120 h in data set [5] stood at 9700 nM.

With `COc1cc(Oc2c(C)cc(C#N)cc2C)cc(NC2CCN(Cc3ccc(C(N)=O)cc3)CC2)n1`, the EC50 in data set [1] was at least 6600 nM; in data set [6] it was 20 nM. In addition, the values for the selectivity ratio in data set [2] and in data set [7] were 1140 and at most 3, respectively. Also, in data set [3], the solubility is above 257 µM. In addition, in data set [4], the IC50 worked out at 113 nM. Further, the CC50 at 120 h in data set [5] was determined as 22900 nM.

With `Cc1cc(C)c(Oc2cc(Cl)nc(NC3CCN(Cc4ccc(S(N)(=O)=O)cc4)CC3)c2)c(C)c1`, the results for the EC50 in data set [1] and in data set [6] were at least 9400 nM and 33 nM, respectively. In addition, the selectivity ratio in data set [2] was 161; in data set [7], at most 1. This compound also gave a solubility in data set [3] above 49 µM. For the same compound, the IC50 in data set [4] came to 159 nM. Further, in data set [5], the CC50 at 120 h was determined as 5400 nM.

For `Cc1cc(C)c(Oc2cc(Cl)nc(NC3CCN(Cc4ccc(S(C)(=O)=O)cc4)CC3)c2)c(C)c1`, the EC50 in data set [1] was above 1100 nM; in data set [6], 25 nM. Also, the selectivity ratio in data set [2] is 46; in data set [7], below 1. Further, the solubility in data set [3] is above 49 µM. For the same compound, in data set [4], the IC50 was 160 nM. For the same compound, in data set [5], the CC50 at 120 h turned out to be 1200 nM.

As to `Cc1cc(C#N)cc(C)c1Oc1cc(Cl)nc(Nc2ccc(C#N)cc2)c1`, the figures for the EC50 in data set [1] and in data set [6] were above 57700 nM and 1070 nM, respectively. For the same compound, the results for the selectivity ratio in data set [2] and in data set [7] were 54 and below 1, respectively. This compound yielded a solubility in data set [3] above 3 µM. In data set [4], the IC50 worked out at 773 nM. In data set [5], the 50% cytotoxic concentration (CC50) at 120 h was found to be 57700 nM.

As to `Cc1cc(C#N)cc(C)c1Oc1cc(Cl)nc(NC2CCN(Cc3ccc(S(N)(=O)=O)cc3)CC2)c1`, the concentration for a half-maximal effect (EC50) in data set [1] was above 7000 nM; in data set [6], 7.4 nM. Besides, the values for the selectivity ratio in data set [2] and in data set [7] were 946 and below 1, respectively. For the same compound, the solubility in data set [3] is above 48 µM. The IC50 in data set [4] came out at 57 nM. Besides, in data set [5], the 50% cytotoxic concentration (CC50) at 120 h came out at 7000 nM.

Regarding `Cc1cc(C)c(Oc2cc(Cl)nc(NC3CCN(Cc4ccncc4)CC3)c2)c(C)c1`, the figures for the EC50 in data set [1] and in data set [6] were at least 10500 nM and 42 nM, respectively. The selectivity ratio in data set [2] was 247; in data set [7] it was at most 1. Also, the solubility in data set [3] was above 57 µM. Besides, in data set [4], the IC50 amounted to 82 nM. For the same compound, the cytotoxic concentration (CC50) at 120 h in data set [5] was 10400 nM.

Turning to `COc1cc(Oc2c(C)cc(C#N)cc2C)cc(NC2CCN(Cc3ccccc3)CC2)n1`, the results for the EC50 in data set [1] and in data set [6] were above 3500 nM and 100 nM, respectively. For the same compound, the selectivity ratio in data set [2] was 37; in data set [7], below 1. The solubility in data set [3] was above 56 µM. In addition, the IC50 in data set [4] stood at 264 nM. The CC50 at 120 h in data set [5] stood at 3500 nM.

Turning to `Cc1cc(C)c(Oc2cc(Cl)nc(Nc3ccc(C#N)cc3)c2)c(C)c1`, the EC50 in data set [1] was above 10800 nM; in data set [6], 410 nM. The selectivity ratio is 26 in data set [2] and below 1 in data set [7]. For the same compound, the solubility in data set [3] is above 14 µM. Besides, in data set [4], the IC50 worked out at 248 nM. Besides, the CC50 at 120 h in data set [5] is 10800 nM.

`Cc1cc(C#N)cc(C)c1Oc1cc(Cl)nc(NC2CCN(Cc3ccc(C(N)=O)cc3)CC2)c1`: the EC50 in data set [1] is at least 9700 nM; in data set [6] it was 10 nM. The selectivity ratio is 1010 in data set [2] and at most 1 in data set [7]. The compound also came in with a solubility in data set [3] above 51 µM. Also, in data set [4], the IC50 amounted to 90 nM. Further, the CC50 at 120 h in data set [5] was determined as 9800 nM.

These data come from ChEMBL document CHEMBL3860023, “Structural optimization of pyridine-type DAPY derivatives to exploit the tolerant regions of the NNRTI binding pocket” (Eur J Med Chem, 2016).
